For test [1], the target named is T1, KRAS G12D (Homo sapiens, UniProt P01116, G12D).
T1 construct: made in house; host or cells: E. coli, e.g. BL21 (DE3)
Description: HTRF assay, KRAS G12D interaction with SOS1. The conditions noted are these: bins <500 nM / 500 nM to 1000 nM, read-out: Inhibition of KRAS G12D (IC50). The test is classed as biochemical. Background: Time-resolved FRET reads energy transfer from a long-lived donor to a nearby acceptor.

Test [2] concerns the target T2, KRAS WT (Homo sapiens, UniProt P01116).
T2 construct: made in house; host or cells: E. coli, e.g. BL21 (DE3)
Briefly: HTRF assay, wildtype KRAS interaction with SOS1. It counts as biochemical. The conditions noted are these: bins <500 nM / 500 nM to 1000 nM, read-out: Inhibition of KRAS WT (IC50).

Test [3] addresses T3, KRAS G12V (Homo sapiens, UniProt P01116, G12V).
T3 construct: made in house; host or cells: E. coli, e.g. BL21 (DE3)
Briefly: HTRF assay, KRAS G12V interaction with SOS1. The test is classed as biochemical. Conditions: bins <500 nM / 500 nM to 1000 nM, read-out: Inhibition of KRAS G12V (IC50).

Test [4] addresses T4, KRAS G12S (Homo sapiens, UniProt P01116, G12S).
T4 construct: made in house; host or cells: E. coli, e.g. BL21 (DE3)
Description: HTRF assay, KRAS G12S interaction with SOS1. It counts as biochemical. The conditions noted are these: bins <500 nM / 500 nM to 1000 nM, read-out: Inhibition of KRAS G12S (IC50).

Test [5] has as its system MiaPaca2 cells. Description: Ras cellular assay, growth of cells with K-Ras G12C mutation. The test is classed as cell-based. Conditions: Homo sapiens, MIA PaCa-2; cell proliferation assay; bins ≤500 nM / >500 nM; read-out: Inhibition of MiaPaca2 Cells (IC50). The gist of the method: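 Anchorage-independent growth: G12C-mutant MIA PaCa-2 plated in soft agar, time-zero plate read the next day when compound was dosed (final DMSO 0.3%). After growth to day 10, MTS-type absorbance at 490/660 nm relative to time zero gave IC50 via four-parameter fitting.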

T1 sequence (P01116 1-188 isoform P01116-2 G12D): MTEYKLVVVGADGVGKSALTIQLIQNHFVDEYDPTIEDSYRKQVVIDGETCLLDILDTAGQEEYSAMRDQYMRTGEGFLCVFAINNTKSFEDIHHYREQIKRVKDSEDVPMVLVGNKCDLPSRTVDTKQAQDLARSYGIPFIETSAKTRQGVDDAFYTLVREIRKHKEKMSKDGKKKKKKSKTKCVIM
T2 sequence (P01116 1-188 isoform P01116-2): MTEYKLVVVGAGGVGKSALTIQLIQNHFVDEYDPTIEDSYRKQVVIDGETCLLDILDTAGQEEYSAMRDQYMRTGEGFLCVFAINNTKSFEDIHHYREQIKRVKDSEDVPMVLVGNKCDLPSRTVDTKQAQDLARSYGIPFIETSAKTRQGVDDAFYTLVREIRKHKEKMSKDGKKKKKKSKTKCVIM
T3 sequence (P01116 1-188 isoform P01116-2 G12V): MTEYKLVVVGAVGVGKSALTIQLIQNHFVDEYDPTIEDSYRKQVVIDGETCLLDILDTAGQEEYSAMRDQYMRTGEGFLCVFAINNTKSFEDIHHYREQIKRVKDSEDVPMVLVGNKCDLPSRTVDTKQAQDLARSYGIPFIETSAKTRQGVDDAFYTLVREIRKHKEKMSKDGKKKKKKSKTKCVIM
T4 sequence (P01116 1-188 isoform P01116-2 G12S): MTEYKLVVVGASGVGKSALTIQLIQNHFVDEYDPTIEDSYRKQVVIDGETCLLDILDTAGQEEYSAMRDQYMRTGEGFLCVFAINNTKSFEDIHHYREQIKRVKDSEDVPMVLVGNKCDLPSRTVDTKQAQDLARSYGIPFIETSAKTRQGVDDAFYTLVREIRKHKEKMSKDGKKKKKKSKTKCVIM

As for `Cc1c(C#N)ncn1C(=O)N1C[C@]2(CC[C@H](C)N(c3nc(OC[C@@]45CCCN4C[C@H](F)C5)nc4c(F)c(-c5ccc(F)c6sc(N)c(C#N)c56)c(Cl)cc34)C2)[C@H]1C1(C)CC1` [Compound 202, 1-((1R,4R,7S)-6-(7-(2-amino-3-cyano-7-fluorobenzo[b]thiophen-4-yl)-6-chloro-8-fluoro-2-(((2R,7aS)-2-fluorotetrahydro-1H-pyrrolizin-7a(5H)-yl)methoxy)quinazolin-4-yl)-7-methyl-1-(1-methylcyclopropyl)-2,6-diazaspiro[3.5]nonane-2-carbonyl)-5-methyl-1H-imidazole-4-carbonitrile], the IC50 in test [1] was less than 500 nM; in test [2], less than 500 nM; in test [3] it was less than 500 nM; in test [4] it was less than 500 nM; in test [5], no more than 500 nM.
For the compound `CCN(c1nc(OCC2(CN3CC4CCC(C3)O4)CC2)nc2c(F)c(-c3ccc(F)c4sc(N)c(C#N)c34)c(C(F)(F)F)cc12)[C@@H]1CCN(C(=O)n2cnc(Cl)n2)[C@@H]1C` [Compound 204, (4S)-4-(2-((1-((8-oxa-3-azabicyclo[3.2.1]octan-3-yl)methyl)cyclopropyl)methoxy)-4-(((2R,3R)-1-(3-chloro-1H-1,2,4-triazole-1-carbonyl)-2-methylpyrrolidin-3-yl)(ethyl)amino)-8-fluoro-6-(trifluoromethyl)quinazolin-7-yl)-2-amino-7-fluorobenzo[b]thiophene-3-carbonitrile], the IC50 in test [1] was less than 500 nM; in test [2], less than 500 nM; in test [3] it was less than 500 nM; in test [4] it was less than 500 nM; in test [5] it was no more than 500 nM.
As to `C[C@@H]1[C@H](N(C)c2nc(OC[C@@]34CCCN3C[C@H](F)C4)nc3c(F)c(-c4ccc(F)c5sc(N)c(C#N)c45)c(Cl)cc23)CCN1C(=O)n1ccc(C#N)c1` [Compound 205, 1-((2R,3R)-3-((7-(2-amino-3-cyano-7-fluorobenzo[b]thiophen-4-yl)-6-chloro-8-fluoro-2-(((2R,7aS)-2-fluorotetrahydro-1H-pyrrolizin-7a(5H)-yl)methoxy)quinazolin-4-yl)(methyl)amino)-2-methylpyrrolidine-1-carbonyl)-1H-pyrrole-3-carbonitrile], the IC50 in test [1] is less than 500 nM; in test [2], less than 500 nM; in test [3], less than 500 nM; in test [4] it was less than 500 nM; in test [5], no more than 500 nM.
For `CCN(c1nc(OC[C@@]23CCCN2C[C@H](F)C3)nc2c(F)c(-c3cc(N)c(F)c(C)c3C(F)(F)F)ncc12)[C@@H]1CCN(C(=O)n2cnc(Cl)n2)[C@@H]1C` [Compound 208, ((2R,3R)-3-((7-(5-amino-4-fluoro-3-methyl-2-(trifluoromethyl)phenyl)-8-fluoro-2-(((2R,7aS)-2-fluorotetrahydro-1H-pyrrolizin-7a(5H)-yl)methoxy)pyrido[4,3-d]pyrimidin-4-yl)(ethyl)amino)-2-methylpyrrolidin-1-yl)(3-chloro-1H-1,2,4-triazol-1-yl)methanone], the IC50 is less than 500 nM in test [1]; 500 to 1000 nM in test [2]; less than 500 nM in test [3]; less than 500 nM in test [4]; no more than 500 nM in test [5].
On to `Cc1cn(C(=O)N2C[C@]3(CC[C@H](C)N(c4nc(OC[C@@]56CCCN5C[C@H](F)C6)nc5c(F)c(-c6ccc(F)c7sc(N)c(C#N)c67)c(Cl)cc45)C3)[C@H]2C2(C)CC2)cn1` [Compound 210, 2-amino-4-(6-chloro-8-fluoro-2-(((2R,7aS)-2-fluorotetrahydro-1H-pyrrolizin-7a(5H)-yl)methoxy)-4-((1R,4R,7S)-7-methyl-2-(4-methyl-1H-imidazole-1-carbonyl)-1-(1-methylcyclopropyl)-2,6-diazaspiro[3.5]nonan-6-yl)quinazolin-7-yl)-7-fluorobenzo[b]thiophene-3-carbonitrile], for which the IC50 is less than 500 nM in test [1]; less than 500 nM in test [2]; less than 500 nM in test [3]; less than 500 nM in test [4]; no more than 500 nM in test [5].

The IC50 is the concentration needed to halve the response being measured.

The values above are taken from patent US20260217735A1, “HETEROCYCLES AND USES THEREOF” (Kumquat Biosciences Inc., priority 2023, published 2026).
